Data published in patent US20100068150A1, “Selective Caspase Inhibitors” (The Board of Trustees of the Leland Stanford Junior …, priority 2006, published 2010).

Target: T1, mature p20 forms of caspase-7 (Homo sapiens, UniProt P55210)
T1 construct: p20 is mature large subunit of caspase-7 with N-terminal peptide removed; processing of the zymogen to the large and small subunits by activity of the initiator caspases; endogenous in cells
T1 sequence (P55210 24-198 limits assumed): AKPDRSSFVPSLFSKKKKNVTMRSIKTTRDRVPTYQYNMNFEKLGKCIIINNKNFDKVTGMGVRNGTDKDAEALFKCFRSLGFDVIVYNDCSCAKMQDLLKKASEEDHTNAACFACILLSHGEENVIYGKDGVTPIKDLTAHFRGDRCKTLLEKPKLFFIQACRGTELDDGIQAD
T1 sequence (P55210 207-303 limits assumed): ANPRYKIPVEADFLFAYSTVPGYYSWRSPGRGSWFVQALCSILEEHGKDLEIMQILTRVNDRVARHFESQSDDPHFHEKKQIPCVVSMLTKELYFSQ
Assay: Inhibitor specificity in hypotonic 293 extracts, mature p20 caspase-7
Format: biochemical
Conditions: inhibitor 20 μM for 5 min, then KMB01 30 min
Source text: FIGS. 6 A-E illustrate that full-length active caspase-7 has unique inhibitor specificity and is processed to mature forms by downstream executioner caspases. (A) The caspase-3 specific inhibitor causes accumulation of a catalytically active full-length form of caspase-7. Cytosolic extracts from 293 cells were activated with cytochrome c/dATP for the indicated times followed by labeling with KMB01 (left panel) and western blotting with a caspase-7 specific antibody (right panel) as in FIG. 5A. […] (B) The exact same experiment as (A) except extracts from MCF-7 cells were used in place of 293 extracts. (**) indicates forms of caspase-7 that are likely a result of the alternative transcription start site at methionine-45 (C) Quantification of the relative activity of FL-C7 in uninhibited 293 extracts (from FIG. 5A), AB06 treated 293 extracts (from (A)) and uninhibited MCF-7 extracts (from (B)) (D) Inhibitor specificity of full-length and processed forms of caspase-7. Extracts (293) were activated for 5 min with cytochrome c/dATP and then incubated with NP-capped AOMK inhibitors containing the indicated primary amino acid sequences for 5 minutes before KMB01 was added and allowed to label residual caspase active sites for 30 minutes. Samples were analyzed by SDS-PAGE followed by biotin blotting using strepavidin-HRP (left panel) or western blotting for caspase-7 (right panel). Identities of labeled caspases are indicated. (E) Specificity of AB06 after prolonged incubation times. Extracts were treated with AB06 at the indicated concentrations simultaneously with cytochrome c/dATP. At the indicated times after activation, samples were labeled with KMB01 (10 μM) for 30 minutes. Labeled caspases were resolved by SDS-PAGE analysis followed by biotin blotting using strepavidin-HRP.
An additional surprising finding from the inhibitor studies was the overall lack of inhibition of the FL-C7 species by AB06 relative to mature p20 forms of caspase-7. This was surprising since the sequence of AB06 (NP-D3VD-AOMK) differs from the KMB01 probe sequence (Bio-EVD-AOMK) only at the P3 residue. […] We therefore wanted to use inhibitors to compare the ability of different P3 elements to bind to full-length and p20 mature forms of caspase-7. […] Samples were analyzed for active site labeling and protein levels of both full-length and p20 forms of caspase-7 were monitored by western blot (FIG. 6D).
Hypotonic 293 extracts (73 μg of total protein) were activated at 37° C. for 5 minutes as described above. […] Samples (13.5 μg total protein) were analyzed by SDS-PAGE and biotin blotting as described above

Row | SMILES | block of KMB01 labeling of mature p20 caspase-7
1 | Cc1cccc(C)c1C(=O)OCC(=O)[C@H](CC(=O)O)NC(=O)[C@@H](NC(=O)[C@H](Cc1ccncc1)NC(=O)[C@H](CC(=O)O)NC(=O)Cc1ccc(O)c([N+](=O)[O-])c1)C(C)C [AB06, Np-D-3-V-D-DMBA] | efficiently blocked labeling
2 | Cc1cccc(C)c1C(=O)OCC(=O)[C@H](CC(=O)O)NC(=O)[C@@H](NC(=O)[C@H](CCC(=O)O)NC(=O)[C@H](CC(=O)O)NC(=O)Cc1ccc(O)c([N+](=O)[O-])c1)C(C)C [AB09, Np-D-E- V-D-DMBA] | efficiently blocked labeling
